Experimental data reported in publication PMC10730845, “Endoxifen downregulates AKT phosphorylation through protein kinase C beta 1 inhibition in ERα+ breast cancer” (NPJ Breast Cancer, 2023).

Tests used:
PKC eta (PKCh) = PKC eta (PKCh) (Homo sapiens, UniProt P24723); assay: In vitro kinase assay, PKC eta; assay type: biochemical; details: 10 μM ATP
Text: (§1) Supplementary Table 4. In vitro kinase assay showing the IC 50 concentration of ENDX and
(§2) of the 12 PKC family members.
(§3) (1 picture or pasted object on this page, not shown here)

PKC mu (PKCm/PRKD1) = PKC mu (PKCm/PRKD1) (Homo sapiens, UniProt Q15139); assay: In vitro kinase assay, PKC mu; assay type: biochemical; details: 10 μM ATP
PKC mu (PKCm/PRKD1), sequence (Q15139 whole entry): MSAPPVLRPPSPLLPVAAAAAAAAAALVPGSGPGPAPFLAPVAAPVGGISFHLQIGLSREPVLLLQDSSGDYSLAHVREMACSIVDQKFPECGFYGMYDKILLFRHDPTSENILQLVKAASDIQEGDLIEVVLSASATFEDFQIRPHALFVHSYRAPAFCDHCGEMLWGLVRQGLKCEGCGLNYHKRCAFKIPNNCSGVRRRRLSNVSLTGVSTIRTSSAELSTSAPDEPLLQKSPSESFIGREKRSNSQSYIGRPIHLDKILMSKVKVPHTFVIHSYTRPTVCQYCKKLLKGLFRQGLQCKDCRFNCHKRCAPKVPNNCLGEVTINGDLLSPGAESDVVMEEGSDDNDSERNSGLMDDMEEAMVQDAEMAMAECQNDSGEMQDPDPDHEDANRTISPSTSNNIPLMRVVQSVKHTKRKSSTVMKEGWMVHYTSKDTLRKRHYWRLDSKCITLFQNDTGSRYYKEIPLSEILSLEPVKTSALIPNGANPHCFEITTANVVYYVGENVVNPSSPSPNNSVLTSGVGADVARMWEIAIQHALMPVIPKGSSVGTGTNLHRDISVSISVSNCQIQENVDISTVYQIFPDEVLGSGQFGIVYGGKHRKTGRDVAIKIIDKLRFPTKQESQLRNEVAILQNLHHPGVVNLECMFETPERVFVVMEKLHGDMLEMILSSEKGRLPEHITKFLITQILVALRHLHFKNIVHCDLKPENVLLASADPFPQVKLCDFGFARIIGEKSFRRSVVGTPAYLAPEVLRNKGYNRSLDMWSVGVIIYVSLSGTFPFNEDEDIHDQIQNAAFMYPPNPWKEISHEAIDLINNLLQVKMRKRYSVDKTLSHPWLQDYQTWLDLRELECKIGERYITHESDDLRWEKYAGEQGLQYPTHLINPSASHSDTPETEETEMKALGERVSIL
Text: as §1, §2, §3

PKC zeta (PKCz) = PKC zeta (PKCz) (Homo sapiens, UniProt Q05513); assay: In vitro kinase assay, PKC zeta; assay type: biochemical; details: 10 μM ATP
PKC zeta (PKCz), sequence (Q05513 whole entry): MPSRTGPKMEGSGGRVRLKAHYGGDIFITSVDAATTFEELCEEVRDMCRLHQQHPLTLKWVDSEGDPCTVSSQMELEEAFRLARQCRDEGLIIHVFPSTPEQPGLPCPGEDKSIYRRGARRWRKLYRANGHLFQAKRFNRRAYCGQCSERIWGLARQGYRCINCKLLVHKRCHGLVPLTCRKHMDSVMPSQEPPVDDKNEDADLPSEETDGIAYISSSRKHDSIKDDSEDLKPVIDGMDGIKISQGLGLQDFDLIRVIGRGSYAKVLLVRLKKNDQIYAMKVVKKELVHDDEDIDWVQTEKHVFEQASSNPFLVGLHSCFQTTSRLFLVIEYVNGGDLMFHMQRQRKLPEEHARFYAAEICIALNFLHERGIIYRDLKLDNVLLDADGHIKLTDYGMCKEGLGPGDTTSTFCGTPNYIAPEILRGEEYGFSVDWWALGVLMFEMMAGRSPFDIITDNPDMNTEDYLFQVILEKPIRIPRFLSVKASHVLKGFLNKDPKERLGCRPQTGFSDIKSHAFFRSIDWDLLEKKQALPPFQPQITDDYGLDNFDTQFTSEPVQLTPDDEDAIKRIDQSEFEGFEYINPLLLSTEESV
Text: as §1, §2, §3

PKCβ1 = PKCβ1 (Homo sapiens, UniProt P05771); assay: Surface plasmon resonance (SPR) binding to immobilized PKCβ1; details: 100–8000 nM ENDX; no saturation, accurate KD could not be established
PKCβ1, sequence (P05771 whole entry): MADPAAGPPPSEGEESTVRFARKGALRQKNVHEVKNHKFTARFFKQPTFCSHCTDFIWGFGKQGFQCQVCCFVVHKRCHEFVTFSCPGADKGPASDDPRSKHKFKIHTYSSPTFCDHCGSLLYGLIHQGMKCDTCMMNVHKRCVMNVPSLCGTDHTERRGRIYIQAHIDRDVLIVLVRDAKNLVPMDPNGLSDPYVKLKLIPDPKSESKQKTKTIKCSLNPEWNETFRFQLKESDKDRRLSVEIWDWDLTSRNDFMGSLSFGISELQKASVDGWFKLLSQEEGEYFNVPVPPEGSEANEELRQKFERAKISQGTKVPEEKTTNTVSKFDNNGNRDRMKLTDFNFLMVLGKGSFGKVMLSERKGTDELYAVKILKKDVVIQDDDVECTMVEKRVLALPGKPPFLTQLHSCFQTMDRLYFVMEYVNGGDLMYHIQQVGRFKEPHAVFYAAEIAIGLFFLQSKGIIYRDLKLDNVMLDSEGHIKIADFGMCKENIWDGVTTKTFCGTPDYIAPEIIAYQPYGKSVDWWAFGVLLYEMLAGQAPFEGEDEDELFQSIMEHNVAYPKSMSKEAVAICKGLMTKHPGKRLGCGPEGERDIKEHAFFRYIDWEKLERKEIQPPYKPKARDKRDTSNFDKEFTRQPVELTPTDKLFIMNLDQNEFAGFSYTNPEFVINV
Description: Binding assays were performed at 25 °C on a Biacore T200 biosensor (GE healthcare). Purified PKCβ1 protein were immobilized on a CM5 S sensor chip using amino coupling and immobilization buffer (10 mM HEPES, 150 mM NaCl, pH 7.4, P20 0.01% (w/w)) and acetate pH 5.0 at a flow rate of 10 µL/min and reaching 10,000-12,000 resonance units (RUs). ENDX at concentrations ranging from 0–8000 nM in phosphate buffer (Gibco) with 2% DMSO (v/v) and 0.01% (w/w) P20 were run over the chips at a flow rate of 50 µl/min for 30 s. Binding kinetics were derived from sensograms using Biacore BIA evaluation software (GE). Sensograms were subtracted for background contributions, and affinity constants were derived using a steady-state affinity fitting of a 1:1 interaction model.

MDAMB231 cells [1] = assay: IncuCyte Annexin V apoptosis assay, MDAMB231; assay type: cell-based, human; details: CSS medium, 48 h, 0–10 µM tested; no apoptosis below the highest concentration
Description: Supplementary Figure 8. ENDX neither induces apoptosis nor inhibit growth of ER - breast cancer cells. a, MDAMB231 cells grown in CSS medium were co -treated with vehicle control or the indicated ENDX concentrations, IncuCyte Annexin V green and NucLight red reagents in CSS medium for 48 hours. The apoptosis graphs are presented as the green object count […]
software. Cells were plated at a density of 2000 cells per well. Data represents the mean of six

MDAMB231 cells [2] = assay: Crystal violet growth assay, MDAMB231; assay type: cell-based, human; details: 0–10 µM tested, day seven
Text: (§4) Supplementary Figure 8. […]
(§5) ANOVA. b, Effects of ENDX on cell proliferation at the indicated concentrations on day seven of
(§6) treatment. […]

BT549 cells = assay: Crystal violet growth assay, BT549; assay type: cell-based, human; details: day seven
Text: as §4, §5, §6

MDAMB436 cells = assay: Crystal violet growth assay, MDAMB436; assay type: cell-based, human; details: day seven
Text: as §4, §5, §6

[3] = system: PKCβ1 and AKT^Ser473 phosphorylation in MDAMB231 cells; assay: Immunoblot of PKCβ1 and pAKT^Ser473, MDAMB231; assay type: cell-based, human; details: 5 µM, 2 h pretreatment, 100 nM insulin 1 h
Text: To determine whether the observed effects of ENDX on PKCβ1 degradation and AKT^Ser473 phosphorylation inhibition are dependent on the presence of ERα, we additionally evaluated ENDX effects on PKCβ1 degradation and AKT^Ser473 phosphorylation in the ER negative (ER-) MDAMB231 breast cancer cells and nonbreast HEK293F cells, a human embryonic kidney cell line, both of which express higher amounts of PKCβ1 compared to ERα+ MCF7AC1 cells (Supplementary Fig. 5a). […] To determine whether the addition of ERα to the MDAMB231 cell line could facilitate ENDX effects on PKCβ1, we performed doxycycline (dox)-induced ERα protein expression in MDAMB231 cells and evaluated ENDX effects on PKCβ1 using the above-mentioned experimental conditions. […] Additionally, we pretreated MDAMB231 and HEK293F cells with or without 5 µM ENDX for 1 h followed by 0 or 200 nM PMA treatment for 20 min and evaluated effects on PKCβ1.
Supplementary Figure 5. Effects of ENDX on PKCβ1, phospho -PKCB1Ser661 and phospho-AKTSer473 expression levels in ERα- breast cancer cells. a, Basal expression of PKCβ1 and ERα in the indicated cell lines. […]

MCF7AC1^caAKT cells = assay: IncuCyte Annexin V apoptosis assay, MCF7AC1^caAKT; assay type: cell-based, human; details: CSS medium, 5 µM, 48 h
Description: MCF7AC1 and T47D-LTED cells were plated at a density of 2000 cells per well in CSS medium for 24 h. Cells were then co-treated for 48 h with vehicle or drug, IncuCyte Annexin V green reagent (#4642, 1:300), an early-stage apoptosis marker, and IncuCyte NucLight rapid red reagent (#4717, 1:500), a dye that stains all cell nuclei red, in CSS medium. MCF7AC1^caAKT cells were plated at a cell density of 2000 cells per well in CSS medium in the absence or presence of cumate for 48 h and then co-treated with vehicle or drug, Annexin V green and NucLight rapid red reagents in the absence or presence of cumate for an additional 48 h in CSS medium.
Molecular cloning was performed for the generation of catalytically active AKT-expressing MCF7AC1 cells. For this purpose, vector pCDNA3.1+ containing an N-terminal SRCMyr signal AKT ORF and C-terminal hemagglutinin (HA)-tag was provided as a kind gift from Dr. Haojie Huang, Ph.D, Mayo Clinic, Rochester, MN. The constitutively active AKT (caAKT)-HA insert was excised using NheI/EcoRV restriction digest, gel purified and cloned into the NheI//PmeI site of an SBI (System biosciences, Palo Alto, CA) vector with modified restriction sites. Sanger sequencing was performed by Azenta/Genewiz, (South Plainfield, NJ) to confirm in frame sequence. […]

PKC eta (PKCh), sequence (P24723 whole entry): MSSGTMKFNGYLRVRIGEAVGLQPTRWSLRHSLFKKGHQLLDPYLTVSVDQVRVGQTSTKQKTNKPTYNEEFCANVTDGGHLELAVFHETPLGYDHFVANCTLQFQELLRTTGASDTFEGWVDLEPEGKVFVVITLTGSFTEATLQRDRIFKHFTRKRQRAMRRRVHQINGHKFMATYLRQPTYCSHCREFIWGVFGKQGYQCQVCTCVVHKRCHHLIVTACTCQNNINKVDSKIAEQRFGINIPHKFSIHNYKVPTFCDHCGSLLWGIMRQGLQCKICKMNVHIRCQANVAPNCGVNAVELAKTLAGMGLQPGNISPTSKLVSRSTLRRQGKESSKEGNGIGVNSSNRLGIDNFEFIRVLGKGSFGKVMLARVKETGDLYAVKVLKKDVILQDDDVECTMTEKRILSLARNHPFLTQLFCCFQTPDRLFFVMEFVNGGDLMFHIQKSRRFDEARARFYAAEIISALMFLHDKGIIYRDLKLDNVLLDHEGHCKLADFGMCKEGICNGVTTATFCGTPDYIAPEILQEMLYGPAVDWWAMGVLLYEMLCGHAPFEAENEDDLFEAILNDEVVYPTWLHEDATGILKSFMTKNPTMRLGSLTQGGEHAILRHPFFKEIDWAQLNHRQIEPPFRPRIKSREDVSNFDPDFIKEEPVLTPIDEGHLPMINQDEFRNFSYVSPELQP

## CC/C(=C(\c1ccc(O)cc1)c1ccc(OCCNC)cc1)c1ccccc1 [ENDX, Z-endoxifen]
PKC eta (PKCh)
  IC50: > 50 µM
PKC mu (PKCm/PRKD1)
  IC50: 31.6 µM
PKC zeta (PKCz)
  IC50: 48.1 µM
PKCβ1
  Binding to PKCβ1 by SPR: binds PKCβ1
MDAMB231 cells [1]
  Concentration at which apoptosis was induced: 10 µM
MDAMB231 cells [2]
  Concentrations at which growth was inhibited: ≥ 7.5 µM
BT549 cells
  Concentrations at which growth was inhibited: > 7.5 µM
MDAMB436 cells
  Concentrations at which growth was inhibited: > 7.5 µM
[3]
  Effect on PKCβ1 protein levels: did not impact PKCβ1 protein levels
  Effect on insulin induced AKT^Ser473 phosphorylation: did not inhibit this phosphorylation
MCF7AC1^caAKT cells; absence of cumate
  Effect on apoptosis: induced apoptosis
MCF7AC1^caAKT cells; presence of cumate
  Effect of caAKT expression on ENDX-induced apoptosis: significantly diminished the ability of ENDX to induce apoptosis
